# Measured values reported in US20130224285A1, “ESTROGEN RECEPTOR ALPHA POLYPEPTIDE SEQUENCE, DIAGNOSTIC AND THERAPEUTIC APPLICATIONS THEREOF” (Universite Libre de Buxelles, priority 2010, published 2013).
# Residues, ends and D or L forms follow the SMILES beside them. No end group written: not given here. *: point of attachment. Cbz = O=C(OCc1ccccc1)*
# What was measured:
# MCF-7 cells = experiment: Immunoprecipitation (G20 antibody) and Western blot of the endogenous ER-alpha degradation peptide in conditioned medium of treated MCF-7 cells; format: cell-based, human; conditions: conditioned medium of MCF-7 cells; estradiol 10^-8M, diethylstibestrol 10^-8M, 4-OHTamoxifen 10^-7M, Fulvestrant 10^-7M; vs control; FIG. 3; preliminary
# Protocol: MCF-7 breast cancer cell line was cultured for 48 hours in EMEM without Phenol-red, comprising 2 mM glutamine, 100 U/ml penicilline and 100 μg/ml streptomycine, supplemented with 10% steroid-free fetal calf serum. After three washing steps with serum/antibiotic-free EMEM without Phenol-red, the cells were cultured for 4 hours in the presence or absence of the E2 ligand dissolved in serum/antibiotic-free EMEM without Phenol-red, containing only 2 mM glutamine.
# After preclearing with 100 μl (50%) immobilised protein G on agarose beads (UltraLink®, Pierce) (2 hours at 4° C.) conditioned media (or EMEM for the negative control) were incubated with antibody G20 (Santa-Cruz) (except for the negative control) overnight at 4° C. After antibody capturing in 100 μl (50%) immobolised proteine G, the resin is heated to 85° C. for 5 minutes in Laemmli without colorant. The protein samples are subsequently separated on a Tris-Tricine 10% (Invitrogen) gel and the peptides are transferred to nitro-cellulose membranes (15% methanol; semi-dry transfer (BioRad apparatus; 24 V; 0.15 mA, 15 minutes). After blocking with 5% milk for 30 minutes, the proteins are detected with chemiluminescence (primary antibody: G20 (1/500; 2 hours); secondary antibody: anti-rabbit (Pierce; 1/6000; 1 hour). […]
# proteasome = conditions: inhibition of the proteasome; Nawaz et al. 1999 and others; cited from earlier work
# ER-alpha = experiment: ERE-driven luciferase reporter assay in MVLN cells; format: cell-based, human; conditions: 10^-5M, 6 hours, serum free, FIG. 6, preliminary
# Description: In order to provide a proof of principle that secretion of the ER-alpha breakdown product/peptide described here could relay or amplify the effect of estradiol toward ER-alpha transcriptional activity, we have treated MVLN cells (MCF-7 stably transfected with an ERE-driven luciferase reporter gene; Pons et al., Biotechniques 1990; 9:450-459) with a synthetic peptide corresponding to this sequence (SEQ ID NO:2) and containing its post-translational modifications in serum free condition (FIG. 6).
# MVLN cells were cultured for 48 hours in EMEM containing 10% of charcoal-stripped serum prior treatment with E2 at 10^−10 M or ER-alpha-17p or SEQ ID NO:2 both at 10^−5M for. After 6 h treatment in serum free condition, cells were washed 2 times with PBS. Luciferase activity was then measured in cell lysates by luminometry using Luciferase Assay System (Promega) according to manufacturer instructions.
# [1] = test system: MCF-7 breast cancer cell line; experiment: MCF-7 cell growth with synthetic peptides, crystal violet staining; format: cell-based, human; conditions: 10^-5M, 72 hours, EMEM with 10% charcoal-stripped serum, vs control, FIG. 4
# Protocol: In order to provide a proof of principle that secretion of the ER-alpha breakdown product/peptide described here could relay or amplify the effect of estradiol toward the proliferation of ER-alpha-positive cells, we have treated MCF-7 cells with a synthetic peptide corresponding to this sequence (SEQ ID NO:2) and containing its post-translational modifications (FIG. 4). ER-alpha-positive MCF-7 breast cancer cell line were seeded in 96-well plates (3000 cells/well). Cells were then treated with or without (control) ER-alpha-17p or the SEQ ID NO:2 peptide both at 10^−5M for 72 hours. Cell growth was measured by crystal violet staining. Briefly, cell cultures were gently washed once with PBS, fixed with 1% glutaraldehyde in PBS (15 min, room temperature) and stained with 0.1% crystal violet (w/v in ddH2O; 30 min, room temperature). After removal of excess dye by rinsing under gently running tap water, cell-bound crystal violet was extracted with 1% Triton X-100 (v/v in ddH2O; room temperature, under agitation) and measured by spectrometry at 550 nm.
# [2] = test system: breast cancer cell lines that are ER-alpha-positive; conditions: Gallo et al. 2007, 2008; cited from earlier work
# ER-alpha receptor = conditions: competition with synthetic peptide; Gallo et al. 2007; cited from earlier work
# [3] = target: T1, purified recombinant human ER-alpha (Homo sapiens, UniProt P03372); conditions: Gallo et al. 2007; cited from earlier work
# T1 sequence (P03372 1-595): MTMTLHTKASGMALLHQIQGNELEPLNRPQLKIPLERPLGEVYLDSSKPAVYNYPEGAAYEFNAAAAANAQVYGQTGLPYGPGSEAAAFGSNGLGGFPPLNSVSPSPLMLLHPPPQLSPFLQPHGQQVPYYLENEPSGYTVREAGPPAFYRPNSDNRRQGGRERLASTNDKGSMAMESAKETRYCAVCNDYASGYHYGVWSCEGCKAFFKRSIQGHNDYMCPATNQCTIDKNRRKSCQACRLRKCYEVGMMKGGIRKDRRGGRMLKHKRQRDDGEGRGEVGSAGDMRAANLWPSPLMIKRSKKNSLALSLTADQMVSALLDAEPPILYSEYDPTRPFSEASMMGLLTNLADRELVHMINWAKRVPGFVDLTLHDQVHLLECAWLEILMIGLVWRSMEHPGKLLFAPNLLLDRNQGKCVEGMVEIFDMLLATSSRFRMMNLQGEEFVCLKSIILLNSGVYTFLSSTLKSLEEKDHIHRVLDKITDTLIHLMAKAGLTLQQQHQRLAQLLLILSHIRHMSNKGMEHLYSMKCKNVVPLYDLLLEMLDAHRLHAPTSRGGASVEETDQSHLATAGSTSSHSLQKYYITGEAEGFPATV
compound,measurement,setting,value
CC/C(=C(\c1ccc(O)cc1)c1ccc(OCCN(C)C)cc1)c1ccccc1 [4-OHTamoxifen],production of the endogenous ER-alpha degradation product/peptide,MCF-7 cells,decrease its production
C[C@]12CC[C@@H]3c4ccc(O)cc4C[C@@H](CCCCCCCCC[S+]([O-])CCCC(F)(F)C(F)(F)F)[C@H]3[C@@H]1CC[C@@H]2O (some centres unmarked) [Fulvestrant],production of the endogenous ER-alpha degradation product/peptide,MCF-7 cells,decrease its production
CC(C)C[C@@H](C=O)NC(=O)[C@H](CC(C)C)NC(=O)[C@H](CC(C)C)NC(=O)OCc1ccccc1 [MG-132] (Cbz-Leu-Leu-Leu-aldehyde),ER-alpha-dependent transcription,proteasome,diminishes ER-alpha-dependent transcription
CC(=O)N[C@@H](CSC(=O)[C@]1([C@@H](O)C(C)C)NC(=O)[C@H](C)[C@@H]1O)C(=O)O [lactacystine],ER-alpha-dependent transcription,proteasome,diminishes ER-alpha-dependent transcription
"K268RQRDDGEGRGEVGSAGDMRAANLWPSPLMIKRSKKNSLALSLT311 (KRQRDDGEGRGEVGSAGDMRAANLWPSPLMIKRSKKNSLALSLT; listed as Homo Sapiens) [SEQ ID NO:2, endogenous 44-residue ER-alpha degradation peptide K268-T311]",ER-alpha transcriptional activity (luciferase),ER-alpha,significant increase of the ER-alpha transcriptional activity higher than the control ER-alpha-17p peptide
same,MCF-7 cell proliferation (growth),[1]; listed as ER-alpha-44p,capable of inducing proliferation of cancer cells
same,MCF-7 cell proliferation (growth),[1]; listed as SED ID NO:2,significant increase of their proliferation higher that the control ER-alpha-17p peptide
P295LMIKRSKK303NSLALSLT311 (PLMIKRSKK(Me)NSLALSLT; listed as Homo Sapiens) [ER-alpha-17p],proliferation of ER-alpha-positive breast cancer cell lines,[2],increased proliferation
same,transcriptional activity of the ER-alpha receptor,ER-alpha receptor,increased transcriptional activity
same,binding to purified recombinant human ER-alpha,[3],binds to purified recombinant human ER-alpha
same,MCF-7 cell proliferation (growth),[1],capable of inducing proliferation of cancer cells
